≈ marks a conversion by molar mass, not a printed value.
target: T1, T164-165 β-lactamase: maltose binding protein (MBP) fusion (Escherichia coli, UniProt P0AEX9, INS191[…]); assay: Effect of sugars on the T164-165 fusion's hydrolysis of nitrocefin (FIG. 8); type: biochemical, E. coli; conditions: 150 μM nitrocefin, 5 mM of the indicated sugar
T1 construct: made in house; host or cells: E. coli (library selected in malE auxotroph PM9F'; derivative of plasmid pDIMC8-Mal, IPTG-inducible lac promoter)
Experimental: The fusion comprises an insertion of β-lactamase amino acid sequences into an MBP acceptor polypeptide with a tandem duplication of amino acids 164-165 of MBP at the insertion site. The velocity of nitrocefin hydrolysis with 150 μM nitrocefin and 5 mM of the indicated sugars was compared to the velocity without any sugar. […] All sugars known to bind to wildtype MBP and induce a conformational change (maltose, maltotriose and maltohexose) increase the rate of hydrolysis by approximately 40%.
Although MBP can bind many other linear maltodextrins, cyclodextrins and reduced or oxidized variants thereof, only those ligands which, induce a conformational change in MBP (Hall, et al. (1997) J. Biol. Chem. 272(28): 17605-17609; Ball, et al. (1997) J. Biol. Chem. 272(28): 17610-17614) behaved as a switch (see, FIG. 8).

Compound | increase of rate of nitrocefin hydrolysis compared to velocity without any sugar
OC[C@H]1O[C@H](O[C@H]2[C@H](O)[C@@H](O)C(O)O[C@@H]2CO)[C@H](O)[C@@H](O)[C@@H]1O (mixture of isomers) [maltose] | approximately 40%
OC[C@@H](O)[C@@H](O[C@H]1O[C@H](CO)[C@@H](O)[C@H](O)[C@H]1O)[C@H](O)[C@@H](O)CO [maltitol] | did not have a significant effect
OC[C@H]1O[C@H](O[C@H]2[C@H](O)[C@@H](O)[C@@H](O[C@H]3[C@H](O)[C@@H](O)[C@@H](O[C@H]4[C@H](O)[C@@H](O)[C@@H](O[C@H]5[C@H](O)[C@@H](O)[C@@H](O[C@H]6[C@H](O)[C@@H](O)C(O)O[C@@H]6CO)O[C@@H]5CO)O[C@@H]4CO)O[C@@H]3CO)O[C@@H]2CO)[C@H](O)[C@@H](O)[C@@H]1O (stereo partly shown) [maltohexose] | approximately 40%
OC[C@H]1O[C@@](CO)(O[C@H]2O[C@H](CO)[C@@H](O)[C@H](O)[C@H]2O)[C@@H](O)[C@@H]1O [sucrose] | did not have a significant effect
OC[C@H]1O[C@@H]2O[C@H]3[C@H](O)[C@@H](O)[C@@H](O[C@H]4[C@H](O)[C@@H](O)[C@@H](O[C@H]5[C@H](O)[C@@H](O)[C@@H](O[C@H]6[C@H](O)[C@@H](O)[C@@H](O[C@H]7[C@H](O)[C@@H](O)[C@@H](O[C@H]8[C@H](O)[C@@H](O)[C@@H](O[C@H]1[C@H](O)[C@H]2O)O[C@@H]8CO)O[C@@H]7CO)O[C@@H]6CO)O[C@@H]5CO)O[C@@H]4CO)O[C@@H]3CO [β-cyclodextrin] | did not have a significant effect
maltotriose | approximately 40%

test system: DH5α/pDIMC8-Mal; assay: MIC for ampicillin on LB plates; type: cell-based, E. coli; conditions: Escherichia coli
From the text: The E. coli […] was cloned into plasmid pDIMC8 (Ostermeier and Benkovic, 1999, Nat Biotechnol. 17:1205-1209) under control of the IPTG inducible lac promoter to create plasmid […].

Compound | MIC [µg/mL]
CC1(C)S[C@@H]2[C@H](NC(=O)[C@H](N)c3ccccc3)C(=O)N2[C@H]1C(=O)O [ampicillin] | 30 to 35 (≈ 85.9 to 100 µM)
